Results reported in US12509450B2, “Solid forms of a dual RAF/MEK inhibitor” (Verastem, Inc., priority 2022, dated 2025).

How the values were obtained:
[1] = Stability of Form 1 under stressed conditions (XRPD, UPLC purity, KF water content); assay type: physicochemical; settings: for Purity (Week 1): week 1, UPLC; for Purity (Week 4): week 4, UPLC; for Water content (Week 5): week 5, KF
Description: X-ray powder diffraction patterns were obtained using a Bruker D8 equipped with a Cu Kα radiation (40 kV, 40 mA) source (λ=1.54°A), a 9-position sample holder, and a θ-2θ goniometer fitted with a Ge monochromator. The incident beam passes through a 2.0 mm divergence slit followed by a 0.2 mm antiscatter slit. The diffracted beam passes through an 8.0 mm receiving slit with 2.5° Soller slits followed by a LYNXEYE super speed detector. Samples were prepared on polished, zero-background silicon plates and run using a low background, airtight specimen dome.
A Mettler Toledo DL39 Coulometric KF Titrator was used to determine the apparent water content in samples. About 90-100 mg of the solid was used for titration. To limit the exposure of the solution to the air, the titrator opening was closed by a stopper immediately after adding samples. HYDRANAL-Coulomat AD was used as the titrant added at 40% speed. The mixing time used was 30 seconds prior to analysis.
The purity of the sample was determined using the method provided by the Analytical Development at JM. Data were collected using an Agilent […] Series UPLC system and analyzed using Chemstation software.
Form 1 solids were stored in 40° C./75% RH or 30° C./65% RH conditions. The XRPD and UPLC purity were measured at week 1 and week 4 time points. […] Additionally, water content was measured by KF at Week 5.

[2] = Dynamic vapor sorption (DVS) moisture sorption isotherm; assay type: physicochemical; settings: for solid form after DVS (XRPD): XRPD of post-DVS sample
Description: Samples were analyzed using a TA Instruments Q5000SA gravimetric water sorption analyzer. The weight of the sample was continuously monitored and recorded with respect to the relative humidity (RH) and time. Samples of 5-10 mg were placed in a tared, hermetically sealed aluminum DVS pan under ambient conditions. The sample pan was punctured prior to being loaded into the humidity chamber. A moisture sorption isotherm was performed at 25° C. at 10% RH intervals over a 0-90% RH range. Three cycles were carried out. If the mass gain or loss on a sorption step was less than 0.1% over 15 minutes, the next humidity interval would begin. If weight continued to change after 120 minutes at a given step, the step would time out and proceed to the next humidity interval.

Q: With CNS(=O)(=O)Nc1nccc(Cc2c(C)c3ccc(Oc4ncccn4)cc3oc2=O)c1F [Form 1] as the compound, how does the “XRPD (Week 1)” value ([1]; 30° C./65% RH) read?
A: Form 1

Q: What about the “Purity (Week 1)” value ([1]; 30° C./65% RH) of the same compound?
A: 99.2%

Q: And the “XRPD (Week 4)” value ([1]; 30° C./65% RH)?
A: Form 1

Q: What about the “Purity (Week 4)” value ([1]; 30° C./65% RH) of the same compound?
A: 99.2%

Q: What about the “Water content (Week 5)” value ([1]; 30° C./65% RH) of the same compound?
A: 0.6%

Q: What about the “purity determined by UPLC on storage” value ([1]; 40° C./75% RH or 30° C./65% RH, week 1 and week 4) of the same compound?
A: remained statistically unchanged

Q: What about the “water content by KF on storage versus initial” value ([1]; 40° C./75% RH or 30° C./65% RH, week 5) of the same compound?
A: consistent with initial water content

Q: And the “XRPD (Week 1)” value ([1]; 40° C./75% RH)?
A: Form 1

Q: What about the “Purity (Week 1)” value ([1]; 40° C./75% RH) of the same compound?
A: 99.2%

Q: What about the “XRPD (Week 4)” value ([1]; 40° C./75% RH) of the same compound?
A: Form 1

Q: And the “Purity (Week 4)” value ([1]; 40° C./75% RH)?
A: 99.2%

Q: What about the “Water content (Week 5)” value ([1]; 40° C./75% RH) of the same compound?
A: 0.5%

Q: And the hygroscopicity ([2]; DVS, 25° C.)?
A: slightly hygroscopic

Q: What about the “weight change between 0-90% RH” value ([2]; DVS, 25° C.) of the same compound?
A: about 1.8%

Q: What about the “weight gain observed between 80-90% RH” value ([2]; DVS, 25° C.) of the same compound?
A: > 1%

Q: And the “solid form after DVS (XRPD)” value [2]?
A: no form change

Q: Which results are given for CNS(=O)(=O)Nc1nccc(Cc2c(C)c3ccc(Oc4ncccn4)cc3oc2=O)c1F [Form 8]?
A: hygroscopicity ([2]; DVS, 25° C.): slightly hygroscopic; weight change between 0-80% RH ([2]; DVS, 25° C., 0-80% RH): up to 0.44%; weight gain observed between 80-90% RH ([2]; DVS, 25° C.): > 0.27%; weight gain at above 80% RH ([2]; DVS, 25° C., above 80% RH): at least 1.12%; solid form after DVS (XRPD) [2]: converted to Form 1

Q: What does the source list for CNS(=O)(=O)Nc1nccc(Cc2c(C)c3ccc(Oc4ncccn4)cc3oc2=O)c1F.[K+] [Form 10]?
A: hygroscopicity ([2]; DVS, 25° C.): hygroscopic; weight change between 0-90% RH ([2]; DVS, 25° C.): about 5.5%; solid form after DVS (XRPD) [2]: converted to Form 1
